Some test systems named below: 786-0; CAKI-1; CCRF-CEM; HCT-15; HL-60; IGROV-1; K562; LOX IMVI; NCI-H23; NCI/ADR-RES; OVCAR-4; PC-3; RPMI-8226; SF-539; SK-MEL-28; SK-MEL-5; SR; U-251; UACC-257; UO-31.
What all share (experiment): DTP human tumour cell line panel, 48 h

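Interpolation was linear, between the two tested concentrations surrounding the appropriate level; five concentrations were tested over 48 hours in 96-well plates. GI50 marks 50% less growth.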 Calls of active or inactive are those of the source. Cut-off read from the data, not from the text of the source: active = GI50 up to about 1.1 µM and inactive = higher. Bounds are passed on as bounds.

`NS(=O)(=O)c1ccc(NNc2c3ccccc3nc3c(C(=O)Nc4ccc(S(=O)(=O)Nc5ncccn5)cc4)cccc23)cc1`: the GI50 in the experiment with 786-0 was > 25 µM (inactive); in the experiment on CAKI-1, > 25 µM (inactive); in the experiment with CCRF-CEM, > 25 µM (inactive); with HCT-15 it was over 25 µM; with HL-60 it was > 25 µM (inactive); in the experiment on IGROV-1 it was > 25 µM (inactive). The GI50 with K562, with LOX IMVI, in the experiment on NCI-H23, in the experiment on NCI/ADR-RES, with OVCAR-4 and in the experiment on PC-3 was > 25 µM (inactive) throughout. Further, the GI50 with RPMI-8226 was > 25 µM (inactive); with SF-539, > 25 µM (inactive); with SK-MEL-28, 10.1 µM (inactive); in the experiment with SK-MEL-5 it was > 25 µM (inactive); with SR, > 25 µM (inactive); in the experiment with U-251, > 25 µM (inactive). Further, the GI50 in the experiment on UACC-257 and with UO-31 was > 25 µM (inactive) in each case.

In the case of `CC(NNC(=O)c1cc[n+]([BH2-]C#N)cc1)c1cccc(F)c1` (stereo not drawn), the GI50 in the experiment on 786-0 is > 100 µM (inactive); in the experiment with CAKI-1 it was > 100 µM (inactive); with CCRF-CEM it was > 100 µM (inactive); with HCT-15 it was over 100 µM; in the experiment on HL-60, 50.5 µM (inactive); in the experiment with IGROV-1, > 100 µM (inactive). In addition, the GI50 was > 100 µM (inactive) in the experiment with K562; > 100 µM (inactive) in the experiment with LOX IMVI; > 100 µM (inactive) in the experiment on NCI/ADR-RES; 69.8 µM (inactive) in the experiment with OVCAR-4; > 100 µM (inactive) in the experiment on PC-3; > 100 µM (inactive) with RPMI-8226. For the same compound, the GI50 was > 100 µM (inactive) in the experiment on SF-539; > 100 µM (inactive) in the experiment with SK-MEL-28; 94.2 µM (inactive) in the experiment on SK-MEL-5; > 100 µM (inactive) with SR; > 100 µM (inactive) in the experiment on U-251; > 100 µM (inactive) with UACC-257. Also, the GI50 in the experiment on UO-31 is > 100 µM (inactive).

For `CO[C@@H]1C[C@H]2[C@@H]3CC[C@H]([C@H](C)CO)[C@@]3(C)CC[C@@H]2[C@@]2(C)CC[C@H]3C[C@]312`, the GI50 in the experiment on 786-0 is 62.5 µM (inactive); in the experiment with CAKI-1 it was 5.08 µM (inactive); in the experiment with HCT-15, 34 µM; in the experiment on HL-60, 20.7 µM (inactive); in the experiment on IGROV-1, 84.7 µM (inactive); with K562, 26 µM (inactive). For the same compound, the GI50 is 18.8 µM (inactive) in the experiment on LOX IMVI; 55.7 µM (inactive) with NCI-H23; 34.3 µM (inactive) in the experiment on NCI/ADR-RES; 55.8 µM (inactive) in the experiment on OVCAR-4; 27.6 µM (inactive) with PC-3; 18.3 µM (inactive) with RPMI-8226. Further, the GI50 in the experiment on SF-539 is 45.7 µM (inactive); in the experiment on SK-MEL-28 it was 46.9 µM (inactive); in the experiment on SK-MEL-5, 30.4 µM (inactive); with SR it was 37.5 µM (inactive); in the experiment with U-251 it was 27.6 µM (inactive); with UACC-257, 35.6 µM (inactive). In addition, the GI50 with UO-31 is 53.1 µM (inactive).

Consider `Nc1ccc(Cn2ccc3c4c(N)nc(N)nc4ccc32)cc1`, for which the GI50 in the experiment on 786-0 was < 0.0252 µM (active); in the experiment on CAKI-1 it was 0.0119 µM (active); with CCRF-CEM it was < 0.01 µM (active); in the experiment with HCT-15 it was under 0.01 µM; with HL-60 it was < 0.01 µM (active); with IGROV-1 it was < 0.01 µM (active). Moreover, the GI50 with K562 is < 0.01 µM (active); with LOX IMVI, < 0.01 µM (active); in the experiment with NCI-H23, < 0.01 µM (active); in the experiment on NCI/ADR-RES it was 0.242 µM (active); in the experiment on OVCAR-4 it was 1.54 µM (inactive); with PC-3 it was 0.0127 µM (active). The GI50 in the experiment on RPMI-8226 was 0.165 µM (active); in the experiment with SF-539, < 0.0184 µM (active); in the experiment with SK-MEL-28, 0.128 µM (active); with SK-MEL-5 it was < 0.01 µM (active); with SR it was 0.0393 µM (active); with U-251, < 0.01 µM (active). Moreover, the GI50 in the experiment on UO-31 is 0.406 µM (active).

As to `CCC(C)[C@@H](NC1=C(Cl)C(=O)c2c(O)ccc(O)c2C1=O)C(=O)OC` (stereo partly drawn), the GI50 was 2.43 µM (inactive) in the experiment on 786-0; 6.46 µM (inactive) with CAKI-1; 0.579 µM (active) with CCRF-CEM; 2.94 µM in the experiment with HCT-15; 2 µM (inactive) in the experiment with HL-60; 3.95 µM (inactive) in the experiment on IGROV-1. For the same compound, the GI50 in the experiment on K562 was 3.59 µM (inactive); in the experiment on LOX IMVI, 3.21 µM (inactive); with NCI-H23 it was 2.07 µM (inactive); with NCI/ADR-RES, 2.52 µM (inactive); in the experiment on OVCAR-4 it was 2.84 µM (inactive); in the experiment on PC-3, 3.86 µM (inactive). Also, the GI50 in the experiment with RPMI-8226 is 2.28 µM (inactive); in the experiment with SF-539, 4.08 µM (inactive); with SK-MEL-5 it was 2.02 µM (inactive); in the experiment on SR, 1.06 µM (active); in the experiment with U-251, 3.78 µM (inactive); with UACC-257, 2.18 µM (inactive).

With `COC(OC)(c1ccccc1)C(Br)Br`, the GI50 in the experiment on 786-0 was 23.2 µM (inactive); in the experiment with CAKI-1 it was 24.6 µM (inactive); with CCRF-CEM, 13.6 µM (inactive); in the experiment on HCT-15 it was 17.1 µM; with HL-60, 23.6 µM (inactive); with IGROV-1, 50.8 µM (inactive). Further, the GI50 in the experiment with K562 is 13.9 µM (inactive); in the experiment with LOX IMVI, 28.2 µM (inactive); with NCI-H23, > 100 µM (inactive); in the experiment on NCI/ADR-RES it was 51.8 µM (inactive); with PC-3, > 100 µM (inactive); in the experiment on RPMI-8226, 36.5 µM (inactive). The GI50 in the experiment with SF-539 is > 10 µM (inactive); with SK-MEL-28, > 100 µM (inactive); in the experiment on SK-MEL-5 it was 67.5 µM (inactive); in the experiment with SR it was 21 µM (inactive); with U-251, > 100 µM (inactive); with UACC-257, > 100 µM (inactive). The GI50 with UO-31 was > 100 µM (inactive).

With `C#CCNC(CS)C(=O)O` (stereo not drawn), the GI50 with 786-0 was > 100 µM (inactive); with CAKI-1, > 100 µM (inactive); with CCRF-CEM, > 100 µM (inactive); with HCT-15, over 100 µM; with HL-60 it was > 100 µM (inactive); with IGROV-1, > 100 µM (inactive). Further, the GI50 with K562, in the experiment with LOX IMVI, with NCI-H23, with NCI/ADR-RES, in the experiment on OVCAR-4 and in the experiment on PC-3 was > 100 µM (inactive) in each case. Moreover, the GI50 with RPMI-8226, with SK-MEL-28, with SK-MEL-5, with SR, with U-251 and in the experiment on UACC-257 was > 100 µM (inactive) throughout. Further, the GI50 in the experiment on UO-31 was > 100 µM (inactive).

For the compound `CCCC1CCC(=C2C(=O)CCC2=O)O1` (stereo not drawn), the GI50 is > 100 µM (inactive) in the experiment on 786-0; > 100 µM (inactive) with CAKI-1; > 100 µM (inactive) with CCRF-CEM; over 100 µM in the experiment on HCT-15; 0.364 µM (active) with HL-60; > 100 µM (inactive) in the experiment on IGROV-1. In addition, the GI50 in the experiment on K562, with LOX IMVI, with NCI-H23, in the experiment with NCI/ADR-RES, in the experiment with OVCAR-4 and in the experiment with PC-3 was > 100 µM (inactive) in each case. Further, the GI50 in the experiment on RPMI-8226, in the experiment on SF-539, in the experiment on SK-MEL-28, in the experiment with SR, with U-251 and with UACC-257 was > 100 µM (inactive) each time. The GI50 in the experiment on UO-31 was > 100 µM (inactive).

On to `C/C=C1/CN2CC[C@@H]3c4ccccc4N4[C@H](C(=O)OC)[C@H]1C[C@H]2[C@]34/C=C/C1=COC[C@@H]2[C@H]1C[C@H]1c3c(c4ccccc4n3C)C[C@@H]2N1C`, for which the GI50 in the experiment on CAKI-1 was 4.1 µM (inactive); in the experiment with CCRF-CEM, 5.31 µM (inactive); with HCT-15, 4.14 µM; in the experiment with IGROV-1, 4.57 µM (inactive); in the experiment with K562, 6.15 µM (inactive); in the experiment on LOX IMVI, 4.19 µM (inactive). The GI50 in the experiment with NCI-H23 is 4.39 µM (inactive); with NCI/ADR-RES, 3.46 µM (inactive); in the experiment on OVCAR-4 it was 3.61 µM (inactive); with PC-3, 2.9 µM (inactive); in the experiment with RPMI-8226, 4.09 µM (inactive); in the experiment on SF-539, 4.15 µM (inactive). The GI50 in the experiment with SK-MEL-28 is 5.15 µM (inactive); in the experiment with SK-MEL-5, 3.89 µM (inactive); in the experiment on SR, 6.1 µM (inactive); with U-251, 3.72 µM (inactive); with UACC-257, 4.52 µM (inactive); in the experiment with UO-31, 3.99 µM (inactive).

As to `COc1ccc2c(c1)C(=O)CC1c3cnccc3C(=O)N21` (stereo not drawn), the GI50 in the experiment on 786-0 was > 100 µM (inactive); in the experiment with CAKI-1, > 100 µM (inactive); in the experiment with HCT-15 it was over 100 µM; with IGROV-1 it was > 85.1 µM (inactive); in the experiment on K562 it was > 94.8 µM (inactive); in the experiment on LOX IMVI it was > 100 µM (inactive). For the same compound, the GI50 with NCI-H23 was > 100 µM (inactive); in the experiment with NCI/ADR-RES, > 100 µM (inactive); in the experiment on OVCAR-4, > 100 µM (inactive); in the experiment with PC-3, > 100 µM (inactive); in the experiment on RPMI-8226 it was > 92 µM (inactive); with SF-539 it was > 100 µM (inactive). Also, the GI50 was > 91.2 µM (inactive) in the experiment with SK-MEL-28; > 100 µM (inactive) with SK-MEL-5; > 85.5 µM (inactive) in the experiment on SR; > 73.5 µM (inactive) with U-251; > 100 µM (inactive) in the experiment with UACC-257; 49.1 µM (inactive) in the experiment with UO-31.

The values above are taken from ChEMBL document CHEMBL1201862, “PubChem BioAssay data set” (2004).
